Marks after values point to notes of the source that are not given here.
Key:
Format in all cases: cell-based, mouse
[1] = system: breast carcinoma F3II cells; assay: Antiproliferative effect on growing F3II cells (toluidine test); conditions: 10% fetal bovine serum
Text: The antiproliferative effect of the above mentioned compounds on breast carcinoma F3II cells is disclosed in the present example. The synthesized compounds are purine nucleoside derivatives which present chemical modifications in either the ribose and/or in the base. These modifications mainly consisted in acetylations of positions 2′-3′ of the ribose, varying the number of carbon atoms of the acyl substituents in position 5′. […] The cell growth was estimated by toluidine test, for which the cell monolayers were fixed with formalin (Formol 10%) and stained with toluidine blue 0.5%. Subsequently, the stained cells were thoroughly washed with PBS and solubilized with 1% SDS. Finally, the number of cells was estimated by measuring the absorbance values at 595 nm. The IC50 values of the compounds Nucl 1, Nucl 4 and Nucl 5, both for cells in the exponential growth phase and for quiescent cells, are depicted in Table 2.

[2] = system: breast carcinoma F3II cells; assay: Monolayer wound assay of tumor cell migration; conditions: for No of migrating cells: overnight, MEM with 10% FBS
Protocol: The present assay consists in the determination of the antimigration effect of the selected compounds on the breast carcinoma cells migration. Cell motility is a key process in the invasion and tumor metastasis processes and it is closely regulated by the Rho-GTPases family, particularly by Rac.
Tumor cell migration in vitro was measured by the “monolayer wound” assay described previously (Alonso D F, Farias E F, Urtreger A, Ladeda V, Vidal M C and Bal de Kier Joffé E: Characterization of F3II, a mammary sarcomatoid carcinoma cell line originated from a mouse adenocarcinoma. J. Surgh. Oncol 1996, 62: 288-297). 0.5 mm width lines were made in confluent monolayers. After washing with PBS, the tumor cells were incubated overnight in MEM with 10% FBS and the monolayers were fixed and stained with methylene blue. The number of cells that moved along the free space were counted by using a 0.36 mm^2 graded grid, using a magnification of 100×, in 3 independent fields per each line.
Doses from 1 to 50 μM of the compounds were assessed, thereby finding a saturation of the antimigration effect in the 3 compounds studied, starting from 10 μM, obtaining an approximate inhibition of 30 to 50% respectively.

[3] = system: breast carcinoma F3II cells; assay: Effect on quiescent F3II cells / cytotoxicity (toluidine staining and MTT assay); conditions: absence of FBS; for cytotoxic effect: 100 μM, 24 hours, semiconfluent monolayers, toluidine and MTT assay; for IC50: Quiescent Cells, F3II, 24 hs
Protocol: The antiproliferative effect of the above mentioned compounds on breast carcinoma F3II cells is disclosed in the present example. The synthesized compounds are purine nucleoside derivatives which present chemical modifications in either the ribose and/or in the base. These modifications mainly consisted in acetylations of positions 2′-3′ of the ribose, varying the number of carbon atoms of the acyl substituents in position 5′. The cells were treated for 72 hours in the presence of fetal bovine serum 10% with different doses of the compounds, with the aim of determining the inhibitory concentration 50% (IC50). The cell growth was estimated by toluidine test, for which the cell monolayers were fixed with formalin (Formol 10%) and stained with toluidine blue 0.5%. Subsequently, the stained cells were thoroughly washed with PBS and solubilized with 1% SDS. Finally, the number of cells was estimated by measuring the absorbance values at 595 nm. The IC50 values of the compounds Nucl 1, Nucl 4 and Nucl 5, both for cells in the exponential growth phase and for quiescent cells, are depicted in Table 2.
In addition, the effect of the analogs showing antiproliferative effect on quiescent cells, was studied in order to discriminate between an antitumoral effect and an unspecific cytotoxic effect. For this purpose, the semiconfluent cell monolayers were incubated for 24 hours in the absence of FBS with the analogs Nucl 1, Nucl 4 and Nucl 5, at a concentration of 100 μM. Subsequently, the cells were fixed and stained with toluidine in order to determine the number of cells. Simultaneously, the cytotoxic effect was determined by the MTT assay.

SMILES	IC50 ([1]; Mus musculus, 48 hs, read-out: IC50 48 hs) [µM]	IC50 ([1]; Mus musculus, 72 hs, read-out: IC50 72 hs) [µM]	No of migrating cells ([2]; 10 μM)	inhibition at 10 µM ([2]; Mus musculus) [%]	cytotoxic effect [3]	IC50 ([3]; Mus musculus) [µM]	IC50 ([1]; 48 hs, read-out: IC50 48 hs) [µM]	IC50 ([1]; 72 hs, read-out: IC50 72 hs) [µM]	Inhibition % (cell migration) ([2]; 10 μM) [%]	IC50 [3] [µM]
CC(=O)OC[C@H]1O[C@@H](n2cnc3c(=O)[nH]c(N)nc32)[C@H](OC(C)=O)[C@@H]1OC(C)=O [Nucl 1, 2′,3′,5′-tri-O-acetyl-guanosine]	26	68	97.7*	32.2	In none of the cases a cytotoxic effect was observed	> 100				
CC(=O)OC[C@H]1O[C@@H](n2cnc3c(Cl)ncnc32)[C@H](OC(C)=O)[C@@H]1OC(C)=O [Nucl 4, 6-chloro-2′,3′,5′-tri-O-acetyl-purine riboside]			85.5**		In none of the cases a cytotoxic effect was observed		60	56	40.6	> 100

Reference: US20090324708A1, “COMPOUND HAVING INHIBITORY ACTIVITY ON A RHO-GTPASE CELL PROTEIN, A PROCESS FOR OBTAINING THE SAME, PHARMACEUTICAL COMPOSITIONS COMPRISING THEREOF AND A METHOD FOR THE TREATMENT OF RHO-GTPASE CELL PROTEIN-MEDIATED CONDITION” (Universidad Nacional De Quilmes, priority 2006, published 2009)
